{"source": "ChEMBL document CHEMBL3832553", "about": "“DailyMed|setid=be8e0025-5726-4965-9510-e7e657687d23 | AVELOX - moxifloxacin hydrochloride tablet, coated|Lake Erie Medical Supply DBA Quality Care Products LLC”", "assay_type_in_all_cases": "ADME, organism-based", "key": {"[1]": {"assay": "Pharmacokinetic parameters for Moxifloxacin hydrochloride following oral administration of Moxifloxacin.", "details": "human, in vivo, dosed compound id 1, dosed compound name MOXIFLOXACIN, tissue Plasma"}, "Homo sapiens [2]": {"system": "Homo sapiens", "assay": "(§1) Pharmacokinetic parameters for Moxifloxacin hydrochloride following single oral or intravenous administration of 400 mg Moxifloxacin to healthy or patient male and/or female", "design": "dose 400 mg, route iv, route oral", "details": "in vivo, dosed compound id 1, dosed compound name MOXIFLOXACIN, regimen Single dose, study dosing duration 1 hr, tissue Plasma; for Cmax: po"}, "[3]": {"assay": "as §1", "design": "dose 400 mg, route iv, route oral", "details": "human, in vivo, 400 mg, dosed compound id 1, dosed compound name MOXIFLOXACIN, regimen Single dose, tissue Plasma"}, "Homo sapiens [4]": {"system": "Homo sapiens", "assay": "(§2) Pharmacokinetic parameters for Moxifloxacin hydrochloride following multiple oral administration of 400 mg Moxifloxacin to male Japanese or Caucasian healthy or patient male and/or female", "design": "dose 400 mg, route iv, route oral", "details": "in vivo, dosed compound id 1, dosed compound name MOXIFLOXACIN, regimen Multiple dose, tissue Plasma"}, "[5]": {"assay": "as §2", "design": "dose 400 mg, route iv, route oral", "details": "human, in vivo, 400 mg, dosed compound id 1, dosed compound name MOXIFLOXACIN, regimen Multiple dose, tissue Plasma"}}, "note": "Values joined by “and” are separate entries in the source; they are usually repeats but may differ in a detail not shown here. Equal values may be shown once.", "data": [{"smiles": "COc1c(N2C[C@@H]3CCCN[C@@H]3C2)c(F)cc2c(=O)c(C(=O)O)cn(C3CC3)c12.Cl", "note": "[MOXIFLOXACIN HYDROCHLORIDE]", "values": [{"measurement": "bioavailability", "setting": "[1]", "value": 90, "unit": "%"}, {"measurement": "AUC", "setting": "Homo sapiens [2]; gender young male and female", "value": 39300, "unit": "ng·h/mL"}, {"measurement": "Cmax", "setting": "Homo sapiens [2]; gender female", "value": 4500, "unit": "ng/mL"}, {"measurement": "Cmax", "setting": "Homo sapiens [2]; gender male and female", "value": 4300, "unit": "ng/mL"}, {"measurement": "Cmax", "setting": "Homo sapiens [2]; gender male", "value": 4400, "unit": "ng/mL"}, {"measurement": "Cmax", "setting": "Homo sapiens [2]; gender young male and female", "value": 3900, "unit": "ng/mL"}, {"measurement": "AUC", "setting": "[3]", "value": 36100, "unit": "ng·h/mL"}, {"measurement": "Cmax", "setting": "[3]; po", "value": 3100, "unit": "ng/mL"}, {"measurement": "Cmax", "setting": "Homo sapiens [4]; gender elderly male amd female, study dosing duration 1 hr", "value": 6100, "unit": "ng/mL"}, {"measurement": "AUC", "setting": "Homo sapiens [4]; gender elderly male", "value": 51800, "unit": "ng·h/mL"}, {"measurement": "Cmax", "setting": "Homo sapiens [4]; gender elderly male", "value": 3800, "unit": "ng/mL"}, {"measurement": "Cmax", "setting": "Homo sapiens [4]; gender female, study dosing duration 1 hr", "value": 4600, "unit": "ng/mL"}, {"measurement": "Cmax", "setting": "Homo sapiens [4]; gender male and female, study dosing duration 1 hr", "value": "4100 ng/mL and 4700 ng/mL"}, {"measurement": "AUC", "setting": "Homo sapiens [4]; gender young female", "value": 49300, "unit": "ng·h/mL"}, {"measurement": "Cmax", "setting": "Homo sapiens [4]; gender young female", "value": 4200, "unit": "ng/mL"}, {"measurement": "AUC", "setting": "Homo sapiens [4]; gender young male, study dosing duration 1 hr", "value": 38000, "unit": "ng·h/mL"}, {"measurement": "AUC", "setting": "Homo sapiens [4]; gender young male", "value": 48200, "unit": "ng·h/mL"}, {"measurement": "Cmax", "setting": "Homo sapiens [4]; gender young male", "value": 3600, "unit": "ng/mL"}, {"measurement": "AUC(0-24)", "setting": "Homo sapiens [4]", "value": 47000, "unit": "ng·h/mL"}, {"measurement": "AUC", "setting": "[5]; gender young male and female, read-out: AUC", "value": 48000, "unit": "ng·h/mL"}, {"measurement": "Cmax", "setting": "[5]; gender young male and female, read-out: Cmax", "value": 4500, "unit": "ng/mL"}, {"measurement": "AUC", "setting": "[5]; read-out: AUC(0-24)", "value": 47000, "unit": "ng·h/mL"}, {"measurement": "Cmax", "setting": "[5]; read-out: Cmax ss", "value": 4100, "unit": "ng/mL"}]}]}
